The test system of this assay is hMLH1 expression (methylation-silenced hMLH1 promoter) in HEK293T cells. Description: hMLH1 mRNA levels by TaqMan qRT-PCR in transfected HEK293T cells. The class given is cell-based, human. The following applies: for hMLH1 activation, comparison in words (direct dCas9 fusions vs Casilio-ME): same combination of sgRNAs; for hMLH1 expression, fold over background (change in mRNA levels): sgRNAs 3+7, 60 hours post-transfection, GAPDH control; for stimulation of TET1(CD) mediated hMLH1 activation by GADD45A PUFc fusions: co-expressed with PUFa-TET1(CD), gRNAs-PBSac. Here is the method:
To test the system, HEK293T cells were transfected with Casilio-ME components including Ct or Nt-fusion TET1-effector and a combination of 3 or 2 sgRNAs. Relative levels of hMLH1 mRNA were determined in TaqMan assays by using RNA extracted from cells 60 hours post-transfection and GAPDH as endogenous control for normalization of qRT-PCR measurements.
Cell culture and transfection. HEK293T cells were cultivated in Dulbecco's modified Eagle's medium (DMEM)(Sigma) with 10% fetal bovine serum (FBS)(Lonza), 4% Glutamax (Gibco), 1% Sodium Pyruvate (Gibco) and penicillin-streptomycin (Gibco) in an incubator set to 37° C. and 5% CO2. When indicated cells were treated with 2.5 μM or 5 μM 5-Azacytidine (sigma) as indicated with a daily change of medium containing freshly diluted drug. Cells were seeded into 12-well plates at 150,000 cells per well the day before being transfected with 100 ng of dCas9 construct, 100 ng of modified sgRNA construct and 200 ng of PUF-fusion with Attractene transfection reagent according to manufacturer's instructions (Qiagen). In dCas9-direct fusion experiments, cells were transfected with 200 ng dCas9-fusion constructs and 200 ng of modified sgRNA constructs. Transfected cells were harvested 60 hours after transfection, or otherwise indicated, and cell pellets were used for extractions of RNA, genomic DNA and protein.
Quantitative RT-PCR analysis. Cells were harvested, washed with Dulbecco's phosphate-buffered saline (dPBS), centrifuged at 125×g for 5 min and then the flash-frozen pellets were stored at −80° C. RNA was extracted using RNeasy Plus Mini Kit according to the manufacturer's instructions (Qiagen). cDNA libraries were made using Applied Biosystems High Capacity RNA-to-cDNA kit with 200 ng to 1 μg of RNA. TaqMan gene expression assays (Applied Biosystems) were designed using GAPDH (Hs03929097, VIC) as endogenous control and hMLH1 (Hs00179866, FAM) as target. TaqMan Universal Master Mix II, with UNG (Applied Biosystems) was used for Quantitative PCR (qPCR), with 2 μl of diluted cDNA used for each reaction. Activation was analyzed with the Applied Biosystems ViiA7 instrument. Gene expression levels were calculated by “delta delta Ct” algorithm and normalized to control samples.
HEK293T cells were cultivated in Dulbecco's modified Eagle's medium (DMEM) (Sigma) with 10% fetal bovine serum (FBS) (Lonza), 4% Glutamax (Gibco), 1% Sodium Pyruvate (Gibco) and penicillin-streptomycin (Gibco) in an incubator set to 37° C. and 5% CO2. Cells were seeded into 12-well plates at 150,000 cells per well the day before being transfected with 100 ng of dCas9 construct, 100 ng of modified sgRNA construct and 200 ng of PUF-fusion with Attractene transfection reagent according to manufacturer's instructions (Qiagen). Transfected cells were harvested 3 days after transfection, or otherwise indicated, and cell pellets were used for RNA extractions.
Cells were harvested, washed with Dulbecco's phosphate-buffered saline (dPBS), centrifuged at 125×g for 5 min and then the flash-frozen pellets were stored at −80° C. RNA was extracted using RNeasy Plus Mini Kit according to the manufacturer's instructions (Qiagen). cDNA libraries were made using Applied Biosystems High Capacity RNA-to-cDNA kit with 200 ng to 2 μg of RNA. TaqMan gene expression assays (Applied Biosystems) were designed using GAPDH (Hs03929097, VIC) as endogenous control and hMLH1 (Hs00179866, FAM) as target. TaqMan Universal Master Mix II, with UNG (Applied Biosystems) was used for Quantitative PCR (qPCR), with 2 μl of diluted cDNA used for each reaction. Activation was analyzed with the Applied Biosystems ViiA7 instrument. Gene expression levels were calculated by “delta delta Ct” algorithm and normalized to control samples.
A general note: In qPCR the cycle at which signal appears reflects the starting amount.

Bounds are passed on as bounds.

Regarding “TET1(CD)-dCas9: direct N-terminal fusion of TET1(CD) to dCas9; SEQ ID NO:52”, the “hMLH1 activation, comparison in words (direct dCas9 fusions vs Casilio-ME)” value (HEK293T) is reported as “much weaker activation than its respective C-terminal fusion”.

Consider “dCas9-TET1(CD): direct C-terminal fusion of TET1(CD) to dCas9; SEQ ID NO:53”, for which, for the setting “HEK293T”, the “hMLH1 activation, comparison in words (direct dCas9 fusions vs Casilio-ME)” value is recorded as “relatively weak activation” and the “hMLH1 expression, fold over background (change in mRNA levels)” value is 19 fold. In addition, the “hMLH1 activation relative to dCas9-p65HSF1” value (HEK293T, same sgRNA combination) was “at best twice the activity obtained with transcription activator dCas9 fusion”. Further, the “hMLH1 activation as share of activation obtained using Casilio-ME” value (same sgRNAs combination, parallel experiment) is on record as “about 14%”.

B1: GADD45A-PUFc: SEQ ID NO:107 (protein)
chain: MTLEEFSAGEQKTERMDKVGDALEEVLSKALSQRTITVGVYEAAKLLNVDPDNVVLCLLAADEDDDRDVALQIHFTLIQAFCCENDINILRVSNPGRLAELLLLETDAGPAASEGAEQPPDLHCVLVTNPHSSQWKDPALSQLICFCRESRYMDQWVPVINLPERSRYPYDVPDYAIDGGGGSDPKKKRKVDPKKKRKVDPKKKRKVGSTGSRNDGGGGSGGGGSGGGGSGRAGILPPKKKRKVSRGRSRLLEDFRNNRYPNLQLREIAGHIMEFSQDQHGSRFIQLKLERATPAERQLVFNEILQAAYQLMVDVFGNYVIQKFFEFGSLEQKLALAERIRGHVLSLALQMYGSRVIEKALEFIPSDQQNEMVRELDGHVLKCVKDQNGNHVVQKCIECVQPQSLQFIIDAFKGQVFALSTHPYGCRVIQRILEHCLPDQTLPILEELHQHTEQLVQDQYGSYVIEHVLEHGRPEDKSKIVAEIRGNVLVLSQHKFANNVVQKCVTHASRTERAVLIDEVCTMNDGPHSALYTMMKDQYANYVVQKMIDVAEPGQRKIVMHKIRPHIATLRKYTYGKHILAKLEKYYMKNGVDLGDPKKKRKVDPKKKRKVGGRGGGGSGGGGSGGGGSGPA
For B1, the “stimulation of TET1(CD) mediated hMLH1 activation by GADD45A PUFc fusions” value was “higher activity compared to PUFc-GADD45A fusions”.

B2: PUFc-GADD45A: SEQ ID NO:106 (protein)
chain: MIDGGGGSDPKKKRKVDPKKKRKVDPKKKRKVGSTGSRNDGGGGSGGGGSGGGGSGRAGILPPKKKRKVSRGRSRLLEDFRNNRYPNLQLREIAGHIMEFSQDQHGSRFIQLKLERATPAERQLVFNEILQAAYQLMVDVFGNYVIQKFFEFGSLEQKLALAERIRGHVLSLALQMYGSRVIEKALEFIPSDQQNEMVRELDGHVLKCVKDQNGNHVVQKCIECVQPQSLQFIIDAFKGQVFALSTHPYGCRVIQRILEHCLPDQTLPILEELHQHTEQLVQDQYGSYVIEHVLEHGRPEDKSKIVAEIRGNVLVLSQHKFANNVVQKCVTHASRTERAVLIDEVCTMNDGPHSALYTMMKDQYANYVVQKMIDVAEPGQRKIVMHKIRPHIATLRKYTYGKHILAKLEKYYMKNGVDLGDPKKKRKVDPKKKRKVGGRGGGGSGGGGSGGGGSGPALTLEEFSAGEQKTERMDKVGDALEEVLSKALSQRTITVGVYEAAKLLNVDPDNVVLCLLAADEDDDRDVALQIHFTLIQAFCCENDINILRVSNPGRLAELLLLETDAGPAASEGAEQPPDLHCVLVTNPHSSQWKDPALSQLICFCRESRYMDQWVPVINLPERSRYPYDVPDYA
On to B2, for which the “stimulation of TET1(CD) mediated hMLH1 activation by GADD45A PUFc fusions” value is on record as “significant stimulation of the TET1(CD) mediated hMLH1 activation”.

B3: PUFa-GADD45A-TET1(CD): GADD45A between PUFa and TET1(CD); SEQ ID NO:105 (protein)
chain: MIDGGGGSDPKKKRKVDPKKKRKVDPKKKRKVGSTGSRNDGGGGSGGGGSGGGGSGRAGILPPKKKRKVSRGRSRLLEDFRNNRYPNLQLREIAGHIMEFSQDQHGSRFIQLKLERATPAERQLVFNEILQAAYQLMVDVFGNYVIQKFFEFGSLEQKLALAERIRGHVLSLALQMYGSRVIEKALEFIPSDQQNEMVRELDGHVLKCVKDQNGNHVVQKCIECVQPQSLQFIIDAFKGQVFALSTHPYGCRVIQRILEHCLPDQTLPILEELHQHTEQLVQDQYGNYVIQHVLEHGRPEDKSKIVAEIRGNVLVLSQHKFASNVVEKCVTHASRTERAVLIDEVCTMNDGPHSALYTMMKDQYANYVVQKMIDVAEPGQRKIVMHKIRPHIATLRKYTYGKHILAKLEKYYMKNGVDLGDPKKKRKVDPKKKRKVGGRGGGSGGGSGGGSGGGSGGGSGGGSLTLEEFSAGEQKTERMDKVGDALEEVLSKALSQRTITVGVYEAAKLLNVDPDNVVLCLLAADEDDDRDVALQIHFTLIQAFCCENDINILRVSNPGRLAELLLLETDAGPAASEGAEQPPDLHCVLVTNPHSSQWKDPALSQLICFCRESRYMDQWVPVINLPERSRGRGGGGSGGGGSGGGGSGPAELPTCSCLDRVIQKDKGPYYTHLGAGPSVAAVREIMENRYGQKGNAIRIEIVVYTGKEGKSSHGCPIAKWVLRRSSDEEKVLCLVRQRTGHHCPTAVMVVLIMVWDGIPLPMADRLYTELTENLKSYNGHPTDRRCTLNENRTCTCQGIDPETCGASFSFGCSWSMYFNGCKFGRSPSPRRFRIDPSSPLHEKNLEDNLQSLATRLAPIYKQYAPVAYQNQVEYENVARECRLGSKEGRPFSGVTACLDFCAHPHRDIHNMNNGSTVVCTLTREDNRSLGVIPQDEQLHVLPLYKLSDTDEFGSKEGMEAKIKSGAIEVLAPRRKKRTCFTQPVPRSGKKRAAMMTEVLAHKIRAVEKKPIPRIKRKNNSTTTNNSKPSSLPTLGSNTETVQPEVKSETEPHFILKSSDNTKTYSLMPSAPHPVKEASPGFSWSPKTASATPAPLKNDATASCGFSERSSTPHCTMPSGRLSGANAAAADGPGISQLGEVAPLPTLSAPVMEPLINSEPSTGVTEPLTPHQPNHQPSFLTSPQDLASSPMEEDEQHSEADEPPSDEPLSDDPLSPAEEKLPHIDEYWSDSEHIFLDANIGGVAIAPAHGSVLIECARRELHATTPVEHPNRNHPTRLSLVFYQHKNLNKPQHGFELNKIKFEAKEAKNKKMKASEQKDQAANEGPEQSSEVNELNQIPSHKALTLTHDNVVTVSPYALTHVAGPYNHWVID
With B3, for the setting “GADD45A two-in-one effectors, HEK293T, TaqMan”, the “enhancement of hMLH1 expression relative to PUFa-TET1(CD) alone” value is on record as 4 fold.

B4: TET1(CD)-PUFa: TET1 catalytic domain fused to N-terminus of PUFa; SEQ ID NO:54 (protein)
chain: MGPAELPTCSCLDRVIQKDKGPYYTHLGAGPSVAAVREIMENRYGQKGNAIRIEIVVYTGKEGKSSHGCPIAKWVLRRSSDEEKVLCLVRQRTGHHCPTAVMVVLIMVWDGIPLPMADRLYTELTENLKSYNGHPTDRRCTLNENRTCTCQGIDPETCGASFSFGCSWSMYFNGCKFGRSPSPRRFRIDPSSPLHEKNLEDNLQSLATRLAPIYKQYAPVAYQNQVEYENVARECRLGSKEGRPFSGVTACLDFCAHPHRDIHNMNNGSTVVCTLTREDNRSLGVIPQDEQLHVLPLYKLSDTDEFGSKEGMEAKIKSGAIEVLAPRRKKRTCFTQPVPRSGKKRAAMMTEVLAHKIRAVEKKPIPRIKRKNNSTTTNNSKPSSLPTLGSNTETVQPEVKSETEPHFILKSSDNTKTYSLMPSAPHPVKEASPGFSWSPKTASATPAPLKNDATASCGFSERSSTPHCTMPSGRLSGANAAAADGPGISQLGEVAPLPTLSAPVMEPLINSEPSTGVTEPLTPHQPNHQPSFLTSPQDLASSPMEEDEQHSEADEPPSDEPLSDDPLSPAEEKLPHIDEYWSDSEHIFLDANIGGVAIAPAHGSVLIECARRELHATTPVEHPNRNHPTRLSLVFYQHKNLNKPQHGFELNKIKFEAKEAKNKKMKASEQKDQAANEGPEQSSEVNELNQIPSHKALTLTHDNVVTVSPYALTHVAGPYNHWVIDGGGGSDPKKKRKVDPKKKRKVDPKKKRKVGSTGSRNDGGGGSGGGGSGGGGSGRAGILPPKKKRKVSRGRSRLLEDFRNNRYPNLQLREIAGHIMEFSQDQHGSRFIQLKLERATPAERQLVFNEILQAAYQLMVDVFGNYVIQKFFEFGSLEQKLALAERIRGHVLSLALQMYGSRVIEKALEFIPSDQQNEMVRELDGHVLKCVKDQNGNHVVQKCIECVQPQSLQFIIDAFKGQVFALSTHPYGCRVIQRILEHCLPDQTLPILEELHQHTEQLVQDQYGNYVIQHVLEHGRPEDKSKIVAEIRGNVLVLSQHKFASNVVEKCVTHASRTERAVLIDEVCTMNDGPHSALYTMMKDQYANYVVQKMIDVAEPGQRKIVMHKIRPHIATLRKYTYGKHILAKLEKYYMKNGVDLGDPKKKRKVDPKKKRKVGGRGGGGSGGGGSGGGGSGPA
With B4, the “hMLH1 expression, fold over background (change in mRNA levels)” value (HEK293T) was not above 20 fold.

Values taken from US20190218261A1, “TARGETED ENHANCED DNA DEMETHYLATION” (The Jackson Laboratory, priority 2016, published 2019).
